The subject of data set [1] is MV-4-11 (human myeloid monocytic leukemia cell line). Briefly: Proliferation inhibition activity of compounds to MV-4-11 cells (CellTiter-Glo). The class given is cell-based. To be noted: MV4-11 cells, 72 h dosing. The method in brief:
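MV-4-11 cells, plated 24 h earlier, were exposed 72 h to compounds in 10-point 3-fold dilutions (0.5% DMSO final). Viability read by CellTiter-Glo luminescence; inhibition normalized to blank and untreated controls, IC50 from variable-slope log(inhibitor)-response fit.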
A general note: In ATP-based viability assays light output follows the ATP content of the culture.

Data set [2] can be described thus: Pharmacokinetic study of compounds on ICR mice. The format is in vivo. To be noted: mouse, po, male ICR mice, plasma; for Cmax / Tmax / half-life: 10 mg-kg^1 by gavage; for AUC(0-t): 10 mg/kg-kg^1 by gavage, read-out: AUC0-24. Here is the method: Each compound is prepared with DMSO into a 10 mg/mL stock solution.
Preparation of mixed solvent: Tween 80: PEG400: Water=1:9:90 (v/v/v)
450 μl of the compound DMSO stock solution with a concentration of 10 mg/nmL is accurately sucked into a glass bottle, and added with an appropriate volume of DMSO and mixed solvent, wherein a ratio of the solvent in the final formulation is DMSO: mixed solvent (v/v)=10:90. The mixed solution is vortexed (or ultrasonically treated), and dispersed uniformly to obtain 4.5 mL. administration test solutions with a concentration of 1 mg/nL, respectively.
Male 6-10 week old ICR mice (sourced from: Beijing Vital River Laboratory Animal Technology Co., Ltd.) are taken, 6 mice in each group. The mice are fasted overnight and fed 4 h after the administration. On the day of the experiment, the mice are administrated with 10 mg-kg^1 of compound test solution by gavage. After administration, about 100 μL of blood is harvested from the orbits of the mice at 0 min, 5 mmn, 15 mmn, 30 min, 14 h 2 h, 4 h, 8 h, and 24 h, and placed in EDTA-K2 anticoagulant tubes. The whole blood sample is centrifuged at 1500 to 1600 g for 10 mm, and the plasma obtained by separation is stored in a refrigerator at −40 to −20° C. for biological sample analysis. The blood drug concentration is determined by an LC-MS/MS method.
A non-compartmental model in Pharsight Phoenix 7.0 is used to calculate pharmacokinetic parameters. The specific results are shown in 5 the table below.

One may read the IC50 as the point on the concentration scale where inhibition reaches its midpoint. A low value points to greater potency in that assay. The term Cmax denotes the highest concentration seen after dosing. For orientation: Tmax means the time at which the peak concentration occurs. A word on the half-life: it is the time needed for the level to fall by half in the phase considered. The low end stands for fast loss, the high end for slow loss. `CP(C)(=O)c1ccccc1Nc1nc(Nc2ccc3c(c2)CC[C@@H](N2CCCC2)CC3)ncc1Cl` [Example 10, (S)-(2-((5-chloro-2-((7-(pyrrolidin-1-yl)-6,7,8,9-tetrahydro-5H-benzo[7]annulen-2-yl)amino)pyrimidin-4-yl)amino)phenyl)dimethyl phosphine oxide] registered an IC50 in data set [1] of 5.49 nM. For the same molecule, in data set [2], the peak concentration (Cmax) was 349 ng/mL, the time of peak concentration (Tmax) stood at 0.25 h, the half-life is 3.33 h and the AUC(0-t) stood at 1000 ng·h/mL.
As for `CP(C)(=O)c1c(Nc2nc(Nc3ccc4c(c3)CC[C@@H](N3CCCC3)CC4)ncc2Cl)ccc2nccnc12` [Example 47, (S)-(6-((5-chloro-2-((7-(pyrrolidin-1-yl)-6,7,8,9-tetrahydro-5H-benzo[7]annulen-2-yl)amino)pyrimidin-4-yl)amino)quinoxalin-5-yl)dimethyl phosphine oxide], the IC50 in data set [1] stood at 5.24 nM. In data set [2], the maximum concentration (Cmax) was determined as 69 ng/mL, the time of peak concentration (Tmax) was 1 h, the half-life was 2.06 h and the AUC(0-t) worked out at 307 ng·h/mL.
Take `Cc1ccc(Nc2nc(Nc3ccc4c(c3)CC[C@@H](N3CCCC3)CC4)ncc2Cl)c(P(C)(C)=O)c1` [Example 53, (S)-(2-((5-chloro-2-((7-(pyrrolidin-1-yl)-6,7,8,9-tetrahydro-5H-benzo[7]annulen-2-yl)amino)pyrimidin-4-yl)amino)-5-methylphenyl) dimethyl phosphine oxide]: it took 6.61 nM to reach half-maximal inhibition in data set [1] (IC50). Also, in data set [2], the Cmax is 676 ng/mL, the Tmax was 1 h, the half-life is 1.81 h and the AUC(0-t) was found to be 2200 ng·h/mL.
Take `CNC(=O)c1cc(F)ccc1Nc1nc(Nc2ccc3c(c2)CC[C@@H](N2CCCC2)CC3)ncc1Cl` [Example 19, (S)-2-((5-chloro-2-((7-(pyrrolidin-1-yl)-6,7,8,9-tetrahydro-5H-benzo[7]annulen-2-yl)amino)pyrimidin-4-yl)amino)-5-fluoro-N-methylhenzamide]: in data set [1], the concentration for half-maximal inhibition (IC50) is 1.6 nM. In addition, in data set [2], the Cmax was determined as 342 ng/mL, the Tmax stood at 1 h, the half-life is 3.05 h and the AUC(0-t) is 3540 ng·h/mL.
In turn, `COCc1ccc(Nc2nc(Nc3ccc4c(c3)CC[C@@H](N3CCCC3)CC4)ncc2Cl)c(P(C)(C)=O)c1` [Example 115, (S)-(2-((5-chloro-2-((7-(pyrrolidin-1-yl)-6,7,8,9-tetrahydro-5H-benzo[7]annulen-2-yl)amino)pyrimidin-4-yl)amino)-5-(methoxymethyl)phenyl)dimethylphosphine oxide] displayed a concentration for half-maximal inhibition (IC50) in data set [1] of 6.97 nM. In data set [2], the Cmax was 324 ng/mL, the time of peak concentration (Tmax) stood at 2.17 h and the AUC(0-t) is 1300 ng·h/mL.

The record behind these values is patent US20230227484A1, “PYRIMIDINE COMPOUND AS AXL INHIBITOR” (NANJING CHIA TAI TIANQING PHARMACEUTICAL CO., LTD., priority 2020, published 2023).
